One data set addresses P70S6 kinase (T412E) (Homo sapiens (Human), UniProt P23443, T412E). Description: P70S6 radiometric assay. In kind it is biochemical. As for the experimental part:
P70S6 enzyme is bought from Upstate and used at 2 nM in the assay. […] In the phosphoryl transfer reaction, the ^33P-γ phosphate from ATP is transferred to the serine residue. The reaction mixture is transferred to a phosphocellulose filter plate where the peptide binds and the unused ATP is washed away. After washing, scintillant is added and the incorporated activity measured by scintillation counting.
ATP (10 mM stock) added fresh from concentrated stocks.
Compounds—prepare a dilution curve in DMSO in a polypropylene 96 well plate to 40× final assay concentration (final DMSO 2.5%).
In a polypropylene 96 well plate add in order: • 5 μl compound • 10 μl substrate mix • 10 μl enzyme mix
Controls are “no compound” (DMSO only) and “no enzyme” (use 10 μl of the enzyme mix prior to adding enzyme). Cover with a plate seal (TopSeal A—Packard) or plastic lid from filter plate (moderate radiation barrier). Mix by gentle shaking. Incubate at room temperature for 50 minutes. Stop the reaction by adding 20 μl of 2% orthophosphoric acid.
Pre-wet the wells of a Millipore MAPH NOB plate with 50 μl of 0.5% orthophosphoric acid wash buffer. Filter the liquid through on a Millipore vacuum filtration unit. Transfer the whole of the stopped reaction to the wells. Filter through. Wash twice with 200 μl of 0.5% orthophosphoric acid wash buffer. Vacuum to near dryness. Remove the plate support and allow to the filters to dry further on tissue paper. Snap the plate into an adapter for the Packard TopCount. Add 20 μl of Microscint 20 scintillant, seal with a sheet of Topseal A and count for 30s on the TopCount.

In another data set the target is ROCK-II (h) (Homo sapiens (Human), UniProt O75116). Description: ROCK-II (h) assay, radiometric filter assay. In kind it is biochemical. To be noted: read-out: IC50 (anti-ROCK-II activity). As for the experimental part:
(specific activity approx. 500 cpm/pmol, concentration as required). The reaction is initiated by the addition of the MgATP mix. After incubation for 40 minutes at room temperature, the reaction is stopped by the addition of 5 μl of a 3% phosphoric acid solution. 10 μl of the reaction is then spotted onto a P30 filtermat and washed three times for 5 minutes in 75 mM phosphoric acid and once in methanol prior to drying and scintillation counting.
The compound of various examples described above were tested for anti-ROCK-II activity (assay as described above): […]

The subject of a further data set is blood pressure. To be noted: cited from earlier work.
The conditions of data set [1]: rat, in vivo, po, 30 mg/kg; cited from earlier work.
Where [2] appears, read: enzyme 2 nM, ATP approximately 15 μM, 50 minutes at room temperature, read-out: IC50 (anti-P70S6K activity).
[3] abbreviates: [γ-33P-ATP], 40 minutes at room temperature.

Structures are written as SMILES. Like-named read-outs stand apart in the source and are kept apart here. Where only a bound is given, the exact number is not on record here.

P70S6 kinase (T412E), sequence (P23443 whole entry T412E): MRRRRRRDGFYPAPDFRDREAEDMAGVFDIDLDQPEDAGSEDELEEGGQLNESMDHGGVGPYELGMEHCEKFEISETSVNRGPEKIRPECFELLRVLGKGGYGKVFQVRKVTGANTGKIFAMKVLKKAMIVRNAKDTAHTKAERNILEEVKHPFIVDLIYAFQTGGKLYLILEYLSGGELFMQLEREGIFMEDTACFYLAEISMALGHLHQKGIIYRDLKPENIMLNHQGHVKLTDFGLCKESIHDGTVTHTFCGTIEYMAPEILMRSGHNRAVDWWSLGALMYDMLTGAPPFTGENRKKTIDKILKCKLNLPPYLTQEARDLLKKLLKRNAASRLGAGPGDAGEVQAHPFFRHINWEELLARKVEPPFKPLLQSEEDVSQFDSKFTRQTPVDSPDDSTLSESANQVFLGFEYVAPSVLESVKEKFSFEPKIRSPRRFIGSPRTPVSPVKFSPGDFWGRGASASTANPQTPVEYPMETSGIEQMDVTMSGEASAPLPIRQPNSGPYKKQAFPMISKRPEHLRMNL
ROCK-II (h), sequence (O75116 whole entry): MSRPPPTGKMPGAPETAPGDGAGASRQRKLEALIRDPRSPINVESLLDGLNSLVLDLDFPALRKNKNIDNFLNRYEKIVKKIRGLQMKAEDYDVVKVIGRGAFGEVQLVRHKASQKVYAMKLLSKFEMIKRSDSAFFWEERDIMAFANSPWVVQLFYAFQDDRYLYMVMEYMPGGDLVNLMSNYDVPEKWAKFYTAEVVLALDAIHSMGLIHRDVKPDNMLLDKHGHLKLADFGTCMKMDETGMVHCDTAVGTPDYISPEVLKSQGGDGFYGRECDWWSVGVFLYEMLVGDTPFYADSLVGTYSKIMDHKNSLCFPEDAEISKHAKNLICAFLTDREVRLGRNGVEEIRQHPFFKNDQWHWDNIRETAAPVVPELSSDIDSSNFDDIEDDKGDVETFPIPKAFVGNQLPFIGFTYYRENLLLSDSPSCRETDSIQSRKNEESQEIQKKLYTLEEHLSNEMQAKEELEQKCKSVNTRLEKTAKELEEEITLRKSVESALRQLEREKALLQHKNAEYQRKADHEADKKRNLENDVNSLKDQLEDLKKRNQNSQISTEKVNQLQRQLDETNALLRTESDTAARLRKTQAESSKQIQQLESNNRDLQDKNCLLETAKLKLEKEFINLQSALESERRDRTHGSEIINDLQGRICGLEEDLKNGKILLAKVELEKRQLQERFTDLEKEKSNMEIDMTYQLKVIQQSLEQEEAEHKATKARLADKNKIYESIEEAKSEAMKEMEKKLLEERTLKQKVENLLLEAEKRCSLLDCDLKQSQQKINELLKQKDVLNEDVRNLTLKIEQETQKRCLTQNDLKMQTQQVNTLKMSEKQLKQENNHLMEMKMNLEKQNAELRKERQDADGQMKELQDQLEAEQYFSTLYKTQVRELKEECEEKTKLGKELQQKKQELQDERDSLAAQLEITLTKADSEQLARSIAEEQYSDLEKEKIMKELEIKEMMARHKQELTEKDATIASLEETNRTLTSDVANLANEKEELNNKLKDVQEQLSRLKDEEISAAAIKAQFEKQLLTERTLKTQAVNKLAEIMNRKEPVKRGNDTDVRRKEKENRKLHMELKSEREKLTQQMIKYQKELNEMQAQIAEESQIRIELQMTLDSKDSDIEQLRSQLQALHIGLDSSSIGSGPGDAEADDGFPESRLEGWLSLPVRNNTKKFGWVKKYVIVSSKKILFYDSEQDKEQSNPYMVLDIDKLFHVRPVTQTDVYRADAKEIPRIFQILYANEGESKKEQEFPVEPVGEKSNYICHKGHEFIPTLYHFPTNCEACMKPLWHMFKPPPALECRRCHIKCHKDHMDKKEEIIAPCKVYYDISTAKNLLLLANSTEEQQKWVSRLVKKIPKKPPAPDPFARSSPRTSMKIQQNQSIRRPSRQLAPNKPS

The term IC50 denotes the concentration at which inhibition is half-maximal. Turning to `NCC1(c2ccc(OC(F)(F)F)cc2)CCN(c2ncnc3[nH]ccc23)CC1` [Example 30], on P70S6 kinase (T412E) (setting [2]), the half-maximal inhibitory concentration (IC50) was determined as 7 nM.
As to `NC1CCN(c2ncnc3[nH]c(=O)[nH]c23)CC1` [Example 4, 6-(4-Aminopiperidin-1-yl)-7,9-dihydropurin-8-one], the figures for the IC50 on ROCK-II (h) and at P70S6 kinase (T412E) (setting [2]) were greater than 1000 nM and 3000 nM, respectively.
With `NC1(Cc2ccccc2Cl)CCN(c2ncnc3[nH]ccc23)CC1` [Example 55, 4-(2-Chlorobenzyl)-1-(7H-pyrrolo[2,3-d]pyrimidin-4-yl)piperidin-4-ylamine], the half-maximal inhibitory concentration (IC50) on ROCK-II (h) (setting [3]) was greater than 1000 nM.
For `C[C@@H](N)[C@H]1CC[C@H](C(=O)Nc2ccncc2)CC1` [Example Y-27632], the “effect on blood pressure” value is listed as “reduces blood pressure” in the data set with blood pressure (hypertensive rats) and “does not affect blood pressure” with blood pressure (normal rats). The toxicity in rats entry in data set [1] was “not toxic”.
Consider `NC1(Cc2ccc(Cl)cc2)CCN(c2ncnc3[nH]ccc23)CC1` [Example 17, 4-(4-Chlorobenzyl)-1-(7H-pyrrolo[2,3-d]pyrimidin-4-yl)piperidin-4-ylamine], for which the half-maximal inhibitory concentration (IC50) at ROCK-II (h) (setting [3]) is less than 1000 nM; at P70S6 kinase (T412E) (setting [2]), 94 nM.
`NC1(Cc2ccc(Cl)cc2Cl)CCN(c2ncnc3[nH]ccc23)CC1` [Example 59, 4-(2,4-Dichlorobenzyl)-1-(7H-pyrrolo[2,3-d]pyrimidin-4-yl)piperidin-4-ylamine]: the IC50 is less than 30 nM at ROCK-II (h) and 59 nM at P70S6 kinase (T412E) (setting [2]).
As to `NC1(c2ccc(Cl)cc2)CCN(c2ncnc3[nH]ccc23)CC1` [Example 25, 4-(4-Chlorophenyl)-1-(7H-pyrrolo[2,3-d]pyrimidin-4-yl)piperidin-4-ylamine], 13 nM corresponded to half-maximal inhibition against P70S6 kinase (T412E) (IC50).
As to `NC1(Cc2ccc(Cl)cc2)CCN(c2ccnc3[nH]ccc23)CC1` [Example 54, 4-(4-Chlorobenzyl)-1-(1H-pyrrolo[2,3-b]pyridin-4-yl)-piperidin-4-ylamine], the IC50 at ROCK-II (h) (setting [3]) was less than 10 nM; at P70S6 kinase (T412E) (setting [2]), 30 nM.

The values above are taken from patent US8796293B2, “Purine and deazapurine derivatives as pharmaceutical compounds” (Astex Therapeutics Limited, priority 2006, dated 2014).
